Where only a bound is given, the exact number is not on record here.

In one test the target is GSK3α(h) (Homo sapiens, UniProt P49840). Put plainly: GSK3α radiometric kinase assay (33P-ATP, phospho GS2 peptide). The class given is biochemical. The settings on record: read-out: IC50 GSK3α (enzyme assay). An outline of the steps:
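Human GSK3α incubated with 20 μM phospho-GS2 peptide in 8 mM MOPS pH 7,0, 10 mM Mg-acetate and [γ-33P]ATP (concentration as required), started with MgATP. After 40 minutes at room temperature, stopped with phosphoric acid; 33P incorporation measured by filtermat spotting and scintillation counting.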

The target of test [1] is T1, GCN2 (Homo sapiens, UniProt Q9P2K8). Put plainly: GCN2 enzyme assay (TR-FRET Lanthascreen, GFP-eIF2alpha phosphorylation). The class given is biochemical. The settings on record: 10 μM ATP, 80 nM GFP-eIF2a, 30 nM GCN2. An outline of the steps:
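Phosphorylation of GFP-eIF2alpha (80 nM) by GCN2 run at room temperature with 10 μM ATP. After EDTA quench, product quantified by Lanthascreen TR-FRET (antibody–GFP complex, 340 nm excitation).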
Target sequence in this assay (Q9P2K8 whole entry, species assumed): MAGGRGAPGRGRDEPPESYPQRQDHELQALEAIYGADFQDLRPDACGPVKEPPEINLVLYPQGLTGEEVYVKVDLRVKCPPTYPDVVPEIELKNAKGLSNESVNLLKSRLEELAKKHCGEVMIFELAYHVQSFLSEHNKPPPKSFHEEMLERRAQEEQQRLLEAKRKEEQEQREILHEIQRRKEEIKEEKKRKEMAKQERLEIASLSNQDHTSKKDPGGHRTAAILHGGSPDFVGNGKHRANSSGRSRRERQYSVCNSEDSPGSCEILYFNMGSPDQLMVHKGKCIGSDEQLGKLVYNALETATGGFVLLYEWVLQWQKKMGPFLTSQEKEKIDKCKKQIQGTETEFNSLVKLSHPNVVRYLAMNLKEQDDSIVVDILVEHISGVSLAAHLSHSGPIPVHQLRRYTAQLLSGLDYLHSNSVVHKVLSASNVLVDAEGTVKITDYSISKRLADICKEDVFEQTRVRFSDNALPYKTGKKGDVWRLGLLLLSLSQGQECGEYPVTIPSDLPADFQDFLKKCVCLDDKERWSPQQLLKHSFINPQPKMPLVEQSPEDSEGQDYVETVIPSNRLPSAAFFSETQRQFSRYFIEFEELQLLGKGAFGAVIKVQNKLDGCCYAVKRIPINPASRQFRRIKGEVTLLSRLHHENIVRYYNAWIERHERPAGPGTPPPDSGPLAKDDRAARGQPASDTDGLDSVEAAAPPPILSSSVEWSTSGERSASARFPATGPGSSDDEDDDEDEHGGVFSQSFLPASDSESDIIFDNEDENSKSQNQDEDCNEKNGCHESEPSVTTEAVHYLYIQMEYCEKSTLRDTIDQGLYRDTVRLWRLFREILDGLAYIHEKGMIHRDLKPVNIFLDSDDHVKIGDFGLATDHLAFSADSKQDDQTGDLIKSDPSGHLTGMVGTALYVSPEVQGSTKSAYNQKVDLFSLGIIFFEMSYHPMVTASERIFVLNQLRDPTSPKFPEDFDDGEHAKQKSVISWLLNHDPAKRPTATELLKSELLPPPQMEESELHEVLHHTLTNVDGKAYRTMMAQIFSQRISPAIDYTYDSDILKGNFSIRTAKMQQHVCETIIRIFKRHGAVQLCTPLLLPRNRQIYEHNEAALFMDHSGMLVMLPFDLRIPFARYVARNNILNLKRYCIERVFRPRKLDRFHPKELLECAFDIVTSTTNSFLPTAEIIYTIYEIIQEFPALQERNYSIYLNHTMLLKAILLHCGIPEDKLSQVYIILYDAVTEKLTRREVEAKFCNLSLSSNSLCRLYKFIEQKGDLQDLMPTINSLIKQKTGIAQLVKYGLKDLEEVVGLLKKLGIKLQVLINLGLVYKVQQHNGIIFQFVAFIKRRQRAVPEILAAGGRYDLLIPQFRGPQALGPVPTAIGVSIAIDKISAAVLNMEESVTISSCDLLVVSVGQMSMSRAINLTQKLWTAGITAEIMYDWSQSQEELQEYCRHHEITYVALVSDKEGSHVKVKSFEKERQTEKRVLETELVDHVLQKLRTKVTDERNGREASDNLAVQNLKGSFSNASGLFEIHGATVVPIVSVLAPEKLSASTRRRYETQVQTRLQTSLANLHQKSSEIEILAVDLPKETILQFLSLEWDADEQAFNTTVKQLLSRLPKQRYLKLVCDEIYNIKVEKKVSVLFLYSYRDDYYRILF

The target of a further test is GSK3β(h) (Homo sapiens, UniProt P49841). Put plainly: GSK3β radiometric kinase assay (33P-ATP, phospho GS2 peptide). The class given is biochemical. The settings on record: read-out: IC50 GSK3β (enzyme assay). An outline of the steps: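 Human GSK3β in 8 mM MOPS pH 7,0, 0,2 mM EDTA, 10 mM Mg-acetate with 20 μM phospho-GS2 peptide; the reaction was started with [γ-33P]MgATP at an unstated level. After 40 min at room temperature it was stopped with phosphoric acid, and the peptide was captured on P30 filtermat for scintillation counting.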
Chain of GSK3β(h) (P49841 whole entry): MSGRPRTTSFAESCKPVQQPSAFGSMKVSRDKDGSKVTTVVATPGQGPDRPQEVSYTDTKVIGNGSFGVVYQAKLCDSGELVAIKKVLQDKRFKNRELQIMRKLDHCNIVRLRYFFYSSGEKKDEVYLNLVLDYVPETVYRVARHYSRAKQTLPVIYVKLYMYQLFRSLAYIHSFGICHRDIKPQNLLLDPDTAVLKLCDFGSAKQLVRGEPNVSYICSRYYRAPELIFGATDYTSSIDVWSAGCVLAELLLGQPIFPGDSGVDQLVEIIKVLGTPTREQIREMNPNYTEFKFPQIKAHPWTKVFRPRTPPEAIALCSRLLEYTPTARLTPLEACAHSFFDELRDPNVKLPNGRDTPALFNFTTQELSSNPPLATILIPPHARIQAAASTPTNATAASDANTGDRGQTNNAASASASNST

The target in test [2] is T1, GCN2. Put plainly: Cellular assay of GCN2 activity (phospho-eIF2alpha immunocytochemistry after tryptophanol). The class given is cell-based. Details: endogenous in cells; host or cells: U2OS. The settings on record: Human U2OS cells, 2 h compound, 600 μM tryptophanol 30 min. In outline:
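Readout in human U2OS cells: compound pretreatment 2 h, then tryptophanol (600 μM final) for 30 min to trigger GCN2 signalling. Fixed, permeabilised cells quantified by immunocytochemistry for phosphorylation, normalised to DMSO controls as % effect; IC50 from concentration-response.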
Target sequence in this assay (Q9P2K8 whole entry): as the sequence (Q9P2K8 whole entry, species assumed) above

Chain of GSK3α(h) (P49840 whole entry): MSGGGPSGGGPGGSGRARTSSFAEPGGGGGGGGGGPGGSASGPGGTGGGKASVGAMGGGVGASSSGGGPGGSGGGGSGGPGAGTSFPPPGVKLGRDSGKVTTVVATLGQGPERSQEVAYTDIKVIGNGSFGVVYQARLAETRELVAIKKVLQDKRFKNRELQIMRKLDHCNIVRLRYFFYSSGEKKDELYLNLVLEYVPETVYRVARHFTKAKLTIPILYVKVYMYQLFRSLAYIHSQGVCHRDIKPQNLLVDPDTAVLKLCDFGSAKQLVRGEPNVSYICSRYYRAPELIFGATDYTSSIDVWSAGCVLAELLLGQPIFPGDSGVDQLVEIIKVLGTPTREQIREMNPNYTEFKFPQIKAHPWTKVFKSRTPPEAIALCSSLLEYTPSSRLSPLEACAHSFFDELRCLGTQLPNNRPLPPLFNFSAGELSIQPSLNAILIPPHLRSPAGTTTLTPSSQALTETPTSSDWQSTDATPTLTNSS

As usually defined, the IC50 is the midpoint of a concentration-inhibition curve. `NC(=O)[C@@H]1CC[C@@H](Nc2ncc3nnn(-c4ccc(N5CCOCC5)c(F)c4)c3n2)C1` [A158, (1R,3R)-3-[3-(3-fluoro-4-morpholin-4-yl-phenyl)-3H-[1,2,3]triazolo[4,5-d]-pyrimidin-5-ylamino]-cyclopentanecarboxylic acid amide]: the IC50 is under 1 µM at GSK3α(h), under 1 µM at GCN2 [1], under 1 µM at GSK3β(h) and 5 to 10 µM against GCN2 [2].
Turning to `COc1ccc(-n2nnc3cnc(N[C@@H]4CC[C@@H](C(N)=O)C4)nc32)cc1C` [A162, (1R,3R)-3-[3-(4-methoxy-3-methyl-phenyl)-3H-[1,2,3]triazolo[4,5-d]pyrimidin-5-ylamino]-cyclopentanecarboxylic acid amide], the IC50 at GSK3α(h) was under 1 µM; on GCN2 [1], under 1 µM; on GSK3β(h), under 1 µM; at GCN2 [2], 5 to 10 µM.
As for `CC(C)Oc1ccc(-n2nnc3cnc(N[C@@H]4CC[C@@H](C(N)=O)C4)nc32)cc1` [A164, (1R,3R)-3-[3-(4-isopropoxy-phenyl)-3H-[1,2,3]triazolo[4,5-d]pyrimidin-5-ylamino]-cyclopentanecarboxylic acid amide], the IC50 at GSK3α(h) was under 1 µM; against GCN2 [1] it was under 1 µM; on GSK3β(h), under 1 µM; on GCN2 [2], 5 to 10 µM.
Regarding `Cc1cc2cc(-n3nnc4cnc(N[C@@H]5CC[C@@H](C(N)=O)C5)nc43)ccc2o1` [A180, (1R,3R)-3-[3-(2-methyl-benzofuran-5-yl)-3H-[1,2,3]triazolo[4,5-d]pyrimidin-5-ylamino]-cyclopentanecarboxylic acid amide], the IC50 on GSK3α(h) is under 1 µM; at GCN2 [1], under 1 µM; on GSK3β(h) it was under 1 µM; at GCN2 [2], 1 to 5 µM.
`CCOCCOc1ccc2cc(-n3nnc4cnc(N[C@@H]5CC[C@@H](C(N)=O)C5)nc43)ccc2n1` [A182, (1R,3R)-3-{3-[2-(2-ethoxy-ethoxy)-quinolin-6-yl]-3H-[1,2,3]triazolo[4,5-d]-pyrimidin-5-ylamino}-cyclopentanecarboxylic acid amide]: the IC50 at GSK3α(h) is under 1 µM; against GCN2 [1], under 1 µM; at GSK3β(h), under 1 µM; against GCN2 [2], 1 to 5 µM.
As for `Cc1ncc2cc(-n3nnc4cnc(N[C@@H]5CC[C@@H](C(N)=O)C5)nc43)ccc2n1` [A184, (1R,3R)-3-[3-(2-methyl-quinazolin-6-yl)-3H-[1,2,3]triazolo[4,5-d]pyrimidin-5-ylamino]-cyclopentanecarboxylic acid amide], the IC50 on GSK3α(h) was under 1 µM; at GCN2 [1], under 1 µM; on GSK3β(h) it was under 1 µM; at GCN2 [2] it was 1 to 5 µM.
Regarding `Cc1ccc2cc(-n3nnc4cnc(N[C@@H]5CC[C@@H](C(N)=O)C5)nc43)ccc2n1` [A187, (1R,3R)-3-[3-(2-methyl-quinolin-6-yl)-3H-[1,2,3]triazolo[4,5-d]-pyrimidin-5-ylamino]-cyclopentanecarboxylic acid amide], the IC50 at GSK3α(h), at GCN2 [1], at GSK3β(h) and against GCN2 [2] was under 1 µM each time.
For the compound `Cc1ccc2cc(-n3nnc4cnc(N[C@H]5CC[C@H](C(N)=O)C5)nc43)ccc2n1` [A193, (1S,3S)-3-[3-(2-methyl-quinolin-6-yl)-3H-[1,2,3]triazolo[4,5-d]pyrimidin-5-ylamino]-cyclopentanecarboxylic acid amide], the IC50 at GSK3α(h) is under 1 µM; at GCN2 [1], under 1 µM; on GSK3β(h) it was under 1 µM; at GCN2 [2], 1 to 5 µM.
As for `OCCOc1ccc(-n2nnc3cnc(N[C@@H]4CC[C@@H](O)C4)nc32)cc1` [A203, (1R,3R)-3-{3-[4-(2-hydroxy-ethoxy)-phenyl]-3H-[1,2,3]triazolo[4,5-d]pyrimidin-5-ylamino}-cyclopentanol], the IC50 on GSK3α(h) was under 1 µM; against GCN2 [1], under 1 µM; at GSK3β(h) it was under 1 µM; at GCN2 [2], 1 to 5 µM.

The values above are taken from patent US9855268B2, “Triazolo[4,5-d]pyrimidine derivatives” (Merck Patent GmbH, priority 2013, dated 2018).
